# Data taken from patent US20240158446A1, “CYCLIC COMPOUND HAVING SELECTIVE INHIBITORY ACTION ON KRAS OVER HRAS AND NRAS” (CHUGAI SEIYAKU KABUSHIKI KAISHA, priority 2021, published 2024).
# Columns and labels:
# [1] = biological target: GDP-bound KRAS wild-type protein (Homo sapiens, UniProt P01116); test: Binding to KRAS by surface plasmon resonance (SPR), Single Cycle Kinetics; conditions: SPR Single Cycle Kinetics, GDP-bound KRAS wild-type protein, 1:1 binding model; read-out: KRAS KD
# [2] = biological target: GDP-bound NRAS wild-type protein (Homo sapiens, UniProt P01111); test: Binding to NRAS by surface plasmon resonance (SPR), Single Cycle Kinetics; conditions: SPR, GDP-bound NRAS wild-type protein vs GDP-bound KRAS wild-type protein
# GDP-bound NRAS wild-type protein, sequence (P01111 whole entry): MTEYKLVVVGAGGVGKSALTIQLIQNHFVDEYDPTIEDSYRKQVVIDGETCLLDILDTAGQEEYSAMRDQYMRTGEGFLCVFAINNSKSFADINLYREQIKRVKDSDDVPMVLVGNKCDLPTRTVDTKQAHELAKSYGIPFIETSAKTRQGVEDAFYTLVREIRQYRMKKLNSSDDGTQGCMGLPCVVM
# [3] = biological target: GDP-bound HRAS wild-type protein (Homo sapiens, UniProt P01112); test: Binding to HRAS by surface plasmon resonance (SPR), Single Cycle Kinetics; conditions: SPR, GDP-bound HRAS wild-type protein vs GDP-bound KRAS wild-type protein
# GDP-bound HRAS wild-type protein, sequence (P01112 whole entry): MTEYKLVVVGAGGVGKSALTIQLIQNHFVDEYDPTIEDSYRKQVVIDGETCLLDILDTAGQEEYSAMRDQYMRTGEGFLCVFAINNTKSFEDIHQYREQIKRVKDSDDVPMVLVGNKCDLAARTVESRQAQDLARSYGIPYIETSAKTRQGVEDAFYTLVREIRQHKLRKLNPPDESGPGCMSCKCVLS
# GDP-bound KRAS wild-type protein, sequence (P01116 whole entry): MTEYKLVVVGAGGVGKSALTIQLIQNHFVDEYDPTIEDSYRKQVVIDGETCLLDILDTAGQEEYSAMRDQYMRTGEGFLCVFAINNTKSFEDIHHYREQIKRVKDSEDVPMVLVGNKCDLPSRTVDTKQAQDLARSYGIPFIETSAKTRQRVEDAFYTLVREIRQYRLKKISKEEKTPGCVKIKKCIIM
Kd [1] [pM],SMILES,NRAS/KRAS (ratio of KD value with respect to NRAS to KD value with respect to KRAS) [2],HRAS/KRAS (ratio of KD value with respect to HRAS to KD value with respect to KRAS) [3]
270,CCO[C@@H]1C[C@H]2C(=O)NC3(CCC3)C(=O)N(C)[C@@H](C3CCCC3)C(=O)N(C)[C@H](C(=O)N(C)C)CC(=O)N(C)[C@@H](CC3CC3)C(=O)N[C@@H]([C@@H](C)CC)C(=O)N(C)CC(=O)N(C)[C@H]3CCCCCN(C3=O)[C@@H](Cc3ccc(C(F)(F)F)cc3)C(=O)N(C)CC(=O)N[C@@H](CCc3cc(F)c(C(F)(F)F)c(F)c3)C(=O)N2C1 [PP0667],B (a compound having 3 or more and less than 10 is denoted as B),B (a compound having 3 or more and less than 10 is denoted as B)
380,CCO[C@@H]1C[C@H]2C(=O)NC3(CCC3)C(=O)N(C)[C@@H](C3CCCC3)C(=O)N(C)[C@H](C(=O)N(C)C)CC(=O)N(C)[C@@H](CC3CCC3)C(=O)N[C@@H]([C@@H](C)CC)C(=O)N(C)CC(=O)N(C)[C@H]3CCCCCN(C3=O)[C@@H](Cc3ccc(C(F)(F)F)cc3)C(=O)N(C)CC(=O)N[C@@H](CCc3cc(F)c(C(F)(F)F)c(F)c3)C(=O)N2C1 [PP0668],B (a compound having 3 or more and less than 10 is denoted as B),B (a compound having 3 or more and less than 10 is denoted as B)
120,CCO[C@@H]1C[C@H]2C(=O)NC3(CCC3)C(=O)N(C)[C@@H](C3CCCC3)C(=O)N(C)[C@H](C(=O)N(C)C)CC(=O)N(C)[C@@H](Cc3cccnc3)C(=O)N[C@@H]([C@@H](C)CC)C(=O)N(C)CC(=O)N(C)[C@H]3CCCCCN(C3=O)[C@@H](Cc3ccc(C(F)(F)F)cc3)C(=O)N(C)CC(=O)N[C@@H](CCc3cc(F)c(C(F)(F)F)c(F)c3)C(=O)N2C1 [PP0673],B (a compound having 3 or more and less than 10 is denoted as B),B (a compound having 3 or more and less than 10 is denoted as B)
160,CCO[C@@H]1C[C@H]2C(=O)NC3(CCC3)C(=O)N(C)[C@@H](C3CCCC3)C(=O)N(C)[C@H](C(=O)N(C)C)CC(=O)N(C)[C@@H](COC)C(=O)N[C@@H]([C@@H](C)CC)C(=O)N(C)CC(=O)N(C)[C@H]3CCCCCN(C3=O)[C@@H](Cc3ccc(C(F)(F)F)cc3)C(=O)N(C)CC(=O)N[C@@H](CCc3cc(F)c(C(F)(F)F)c(F)c3)C(=O)N2C1 [PP0674],B (a compound having 3 or more and less than 10 is denoted as B),B (a compound having 3 or more and less than 10 is denoted as B)
470,CCO[C@@H]1C[C@H]2C(=O)NC3(CCC3)C(=O)N(C)[C@@H](C3CCCC3)C(=O)N(C)[C@H](C(=O)N3CCOCC3)CC(=O)N(C)[C@@H](CC)C(=O)N[C@@H]([C@@H](C)CC)C(=O)N(C)CC(=O)N(C)[C@H]3CCCCCN(C3=O)[C@@H](Cc3ccc(C(F)(F)F)cc3)C(=O)N(C)CC(=O)N[C@@H](CCc3cc(F)c(C(F)(F)F)c(F)c3)C(=O)N2C1 [PP0678],B (a compound having 3 or more and less than 10 is denoted as B),B (a compound having 3 or more and less than 10 is denoted as B)
580,CCC[C@H]1C(=O)N[C@@H]([C@@H](C)CC)C(=O)N(C)CC(=O)N(C)[C@H]2CCCCCN(C2=O)[C@@H](Cc2ccc(C(F)(F)F)cc2)C(=O)N(C)CC(=O)N[C@@H](CCc2cc(F)c(C(F)(F)F)c(F)c2)C(=O)N2C[C@H](OCC)C[C@H]2C(=O)NC2(CCC2)C(=O)N(C)[C@@H](C2CCCC2)C(=O)N(C)[C@H](C(=O)N2CCOCC2)CC(=O)N1C [PP0679],B (a compound having 3 or more and less than 10 is denoted as B),B (a compound having 3 or more and less than 10 is denoted as B)
440,C#CC[C@H]1C(=O)N[C@@H]([C@@H](C)CC)C(=O)N(C)CC(=O)N(C)[C@H]2CCCCCN(C2=O)[C@@H](Cc2ccc(C(F)(F)F)cc2)C(=O)N(C)CC(=O)N[C@@H](CCc2cc(F)c(C(F)(F)F)c(F)c2)C(=O)N2C[C@H](OCC)C[C@H]2C(=O)NC2(CCC2)C(=O)N(C)[C@@H](C2CCCC2)C(=O)N(C)[C@H](C(=O)N2CCOCC2)CC(=O)N1C [PP0681],B (a compound having 3 or more and less than 10 is denoted as B),B (a compound having 3 or more and less than 10 is denoted as B)
300,CCO[C@@H]1C[C@H]2C(=O)NC3(CCC3)C(=O)N(C)[C@@H](C3CCCC3)C(=O)N(C)[C@H](C(=O)N3CCOCC3)CC(=O)N(C)[C@@H](COC)C(=O)N[C@@H]([C@@H](C)CC)C(=O)N(C)CC(=O)N(C)[C@H]3CCCCCN(C3=O)[C@@H](Cc3ccc(C(F)(F)F)cc3)C(=O)N(C)CC(=O)N[C@@H](CCc3cc(F)c(C(F)(F)F)c(F)c3)C(=O)N2C1 [PP0689],B (a compound having 3 or more and less than 10 is denoted as B),B (a compound having 3 or more and less than 10 is denoted as B)
460,CCO[C@@H]1C[C@H]2C(=O)NC3(CCC3)C(=O)N(C)[C@@H](C3CCCC3)C(=O)N(C)[C@H](C(=O)N3CCOCC3)CC(=O)N(C)[C@@H](CCOC)C(=O)N[C@@H]([C@@H](C)CC)C(=O)N(C)CC(=O)N(C)[C@H]3CCCCCN(C3=O)[C@@H](Cc3ccc(C(F)(F)F)cc3)C(=O)N(C)CC(=O)N[C@@H](CCc3cc(F)c(C(F)(F)F)c(F)c3)C(=O)N2C1 [PP0690],B (a compound having 3 or more and less than 10 is denoted as B),B (a compound having 3 or more and less than 10 is denoted as B)
16,CCO[C@@H]1C[C@H]2C(=O)NC3(CCC3)C(=O)N(C)[C@@H](C3CCCC3)C(=O)N(C)[C@H](C(=O)N(C)C)CC(=O)N(C)[C@@H](CC)C(=O)N[C@@H]([C@@H](C)CC)C(=O)N(C)CC(=O)N(C)[C@H]3CCCCN(C3=O)[C@@H](Cc3ccc(C(F)(F)F)cc3)C(=O)N(C)CC(=O)N[C@@H](CCc3cc(F)c(C(F)(F)F)c(F)c3)C(=O)N2C1 [PP0693],C (A compound having a KD ratio of 0.1 or more and less than 3 is denoted as C),C (A compound having a KD ratio of 0.1 or more and less than 3 is denoted as C)
25,CCC[C@H]1C(=O)N[C@@H]([C@@H](C)CC)C(=O)N(C)CC(=O)N(C)[C@H]2CCCCN(C2=O)[C@@H](Cc2ccc(C(F)(F)F)cc2)C(=O)N(C)CC(=O)N[C@@H](CCc2cc(F)c(C(F)(F)F)c(F)c2)C(=O)N2C[C@H](OCC)C[C@H]2C(=O)NC2(CCC2)C(=O)N(C)[C@@H](C2CCCC2)C(=O)N(C)[C@H](C(=O)N(C)C)CC(=O)N1C [PP0694],C (A compound having a KD ratio of 0.1 or more and less than 3 is denoted as C),C (A compound having a KD ratio of 0.1 or more and less than 3 is denoted as C)
15,C=CC[C@H]1C(=O)N[C@@H]([C@@H](C)CC)C(=O)N(C)CC(=O)N(C)[C@H]2CCCCN(C2=O)[C@@H](Cc2ccc(C(F)(F)F)cc2)C(=O)N(C)CC(=O)N[C@@H](CCc2cc(F)c(C(F)(F)F)c(F)c2)C(=O)N2C[C@H](OCC)C[C@H]2C(=O)NC2(CCC2)C(=O)N(C)[C@@H](C2CCCC2)C(=O)N(C)[C@H](C(=O)N(C)C)CC(=O)N1C [PP0695],C (A compound having a KD ratio of 0.1 or more and less than 3 is denoted as C),C (A compound having a KD ratio of 0.1 or more and less than 3 is denoted as C)
12,C#CC[C@H]1C(=O)N[C@@H]([C@@H](C)CC)C(=O)N(C)CC(=O)N(C)[C@H]2CCCCN(C2=O)[C@@H](Cc2ccc(C(F)(F)F)cc2)C(=O)N(C)CC(=O)N[C@@H](CCc2cc(F)c(C(F)(F)F)c(F)c2)C(=O)N2C[C@H](OCC)C[C@H]2C(=O)NC2(CCC2)C(=O)N(C)[C@@H](C2CCCC2)C(=O)N(C)[C@H](C(=O)N(C)C)CC(=O)N1C [PP0696],B (a compound having 3 or more and less than 10 is denoted as B),B (a compound having 3 or more and less than 10 is denoted as B)
21,CCO[C@@H]1C[C@H]2C(=O)NC3(CCC3)C(=O)N(C)[C@@H](C3CCCC3)C(=O)N(C)[C@H](C(=O)N(C)C)CC(=O)N(C)[C@@H](CC3CC3)C(=O)N[C@@H]([C@@H](C)CC)C(=O)N(C)CC(=O)N(C)[C@H]3CCCCN(C3=O)[C@@H](Cc3ccc(C(F)(F)F)cc3)C(=O)N(C)CC(=O)N[C@@H](CCc3cc(F)c(C(F)(F)F)c(F)c3)C(=O)N2C1 [PP0697],C (A compound having a KD ratio of 0.1 or more and less than 3 is denoted as C),C (A compound having a KD ratio of 0.1 or more and less than 3 is denoted as C)
15,CCO[C@@H]1C[C@H]2C(=O)NC3(CCC3)C(=O)N(C)[C@@H](C3CCCC3)C(=O)N(C)[C@H](C(=O)N(C)C)CC(=O)N(C)[C@@H](CC3CCC3)C(=O)N[C@@H]([C@@H](C)CC)C(=O)N(C)CC(=O)N(C)[C@H]3CCCCN(C3=O)[C@@H](Cc3ccc(C(F)(F)F)cc3)C(=O)N(C)CC(=O)N[C@@H](CCc3cc(F)c(C(F)(F)F)c(F)c3)C(=O)N2C1 [PP0698],C (A compound having a KD ratio of 0.1 or more and less than 3 is denoted as C),C (A compound having a KD ratio of 0.1 or more and less than 3 is denoted as C)
